Experimental data as given in paper PMC7531004, “Discovery of gramicidin A analogues with altered activities by multidimensional screening of a one-bead-one-compound library” (Nature Communications, 2020).
Values joined by “and” are separate entries in the source; they are usually repeats but may differ in a detail not shown here. Identical values can stand only once. Like-named read-outs stand apart in the source and are kept apart here. Where a SMILES comes first, the peptide text is derived from it. [ ]: non-standard residue; d: D form. The star is where a group is joined. NHCH2CH2OH = OCCN*; For = O=C*

Assays:
[1] = Protocol: Second, we examined the cytotoxicity toward mammalian cancer cells and hemolytic activity of 1. […] Hemolytic activity was evaluated by monitoring hemoglobin leakage from rabbit red blood cells as a consequence of membrane damage. The concentration of 1 required to cause 10% hemoglobin leakage (HC10) was 160 nM. Thus, the P388 cytotoxicity of 1 was 28-fold more sensitive than its hemolytic activity.
Mammalian cytotoxicity assay of purified peptides.
B22 was diluted with the growth medium with 2% DMSO to various concentrations as 5-fold serial dilution.
The collected cells were resuspended into
the growth medium at 2 × 10^4 cells/mL. Aliquots of the former medium (2% DMSO, 100 µL) containing
peptides and the latter medium containing P388 cells (100 µL) were mixed in a 96-well cell culture plate
(TR5003, TrueLine). The final concentration of P388 cells and DMSO were 1 × 10^4 cells/mL and 1%,
respectively. […]
were determined by WST -1 assay. A solution of 1-methoxy PMS and WST-1 in the growth medium
(1-methoxy PMS 0.70 mg/mL in Milli-Q/WST-1 3.6 mg/mL in pH 7.4 HEPES buffer = 1/9) was added to
each well of the plate (20.0 µL/well). The cells were incubated for 4 h under atmosphere of 5% CO 2 at
37 °C. The absorbance of each well at 415 nm was measured using a Benchmark microplate reader
(Bio-Rad) or Thermo Scientifi c Multiskan GO (Thermo Fisher Scientific). The cytotoxicities of the purified
peptides were evaluated as IC 50 (nM) by means of three replicates. Sigmoidal curve fittings were performed

[2] = Membrane disruption assay of purified peptides (carboxyfluorescein leakage); assay type: biochemical; design: key: % lysis; Triton X-100 = 100%, DMSO = 0%; settings: three replicate lines
Protocol: Membrane disruption assay of purified peptides. 5(6)-Carboxyfluorescein (CF)-encapsulated large […]
through Nuclepore polycarbonate filters mounted in the mini-extruder apparatus. A solution of egg yolk phosphatidylcholine (EYPC, 22.0 mg, 28.9 µmol) in CHCl3 (225 µL) and egg yolk phosphatidylglycerol (1.2 0 […]
mM HEPES, 100 mM NaCl, 20 mM CF) by sonication. After five -times freeze-thaw cycles, the lipid […]
concentration of the resultant CF -encapsulated LUV suspension was deduced from the phosphatidylcholine concentration determined by using Phospholipid C -Test Wako. The lipid concentration of the LUV […]
as 5-fold serial dilution. The solution of peptide (2.0 µL) and the CF-encapsulated LUV suspension (200 […]
The resultant suspension was incubated at room temperature for 30 min. The fluorescence (Ex. 490 nm/Em. 517 nm) of each well was measured on Gemini EM microplate reader. Triton X-100/H2O (5/95, 3.0 µL), DMSO (2.0 µL), and the LUV suspension were mixed in each plate to determine 100% lysis. […]
was used to determine 0% lysis. The membrane disruption activities of tested peptides ( I) were normalized against 100% lysis by Triton X-100 (Imax) and 0% lysis by DMSO ( I0) according to Supplementary Equation 2 , where Ix is the fluorescence intensity.
The membrane disruption activities of the purified peptides were plotted as means of three replicates (Supplementary Figure 1).

[3] = test system: Streptococcus pyogenes SSI-9; settings: for antibacterial activity/MIC: S. pyogenes; for Antibacterial activity MIC: SSI-9
Protocol: (§1) Third, 1 was subjected to five pathogenic Gram-positive bacteria.
(§2) Evaluation of antibacterial spectra of purified peptides. The MIC assay was performed according to the Clinical and Laboratory Standards Institute protocols. The antibacterial activities of the purified peptides A1, B01–B04, B11–B13, B21, and B22 were measured using the broth microdilution method. 6 Serial dilutions of the peptides were prepared in cation adjusted Mueller Hinton Broth. Each dilution (100 µL) was dispensed to each well of the round-bottom plate to obtain final concentrations ranging from 64 µg/mL to 0.00024 µg/mL. Bacteria were grown at 37 °C overnight on Tryptic Soy Broth or Mueller Hinton Broth agar plates.
(§3) The bacterial colonies were suspended in 0.9% saline to obtain OD 625 of 0.08–0.13 using a spectrophotometer UV-1280 (Shimadzu). The resultant suspension was diluted with cation adjusted Mueller Hinton Broth (1/20). The resultant mixture (10 .0 µL) was inoculated to each well of the plates (approximately 5 × 10^4 CFU/well), mixed, and incubated at 37 °C for 18–24 h. The MIC value was determined as the minimum concentration that inhibited growth of bacteria. For Streptococcus species, cation adjusted Mueller Hinton Broth supplemented with 5% laked horse blood was used. […]

[4] = test system: Enterococcus faecalis JCM5803; settings: for antibacterial activity/MIC: E. faecalis; for Antibacterial activity MIC: JCM5803
Protocol: as §1, §2, §3

[5] = test system: Streptococcus pneumoniae NBRC 102642; settings: for Antibacterial activity MIC: NBRC 102642; for antibacterial activity/MIC: S. pneumoniae
Protocol: as §1, §2, §3

[6] = test system: Listeria monocytogenes 10403S; settings: for antibacterial activity/MIC: L. monocytogenes
Protocol: as §1, §2, §3

[7] = test system: Streptococcus agalactiae JCM5671; settings: for Antibacterial activity MIC: JCM5671; for antibacterial activity/MIC: S. agalactiae
Protocol: as §1, §2, §3

[8] = IC50, mammalian cytotoxicity assay
[9] = cytotoxicity against P388 cells/IC50

CC(C)C[C@@H](NC(=O)[C@H](C)NC(=O)CNC(=O)[C@@H](NC=O)C(C)C)C(=O)N[C@@H](C)C(=O)N[C@@H](C(=O)N[C@H](C(=O)N[C@@H](C(=O)N[C@@H](Cc1c[nH]c2ccccc12)C(=O)N[C@@H](C(=O)N[C@@H](Cc1c[nH]c2ccccc12)C(=O)N[C@@H](C(=O)N[C@@H](Cc1c[nH]c2ccccc12)C(=O)N[C@@H](C(=O)N[C@@H](Cc1c[nH]c2ccccc12)C(=O)NCCO)C(C)C)C(C)C)C(C)C)C(C)C)C(C)C)C(C)C [B03] (For-VGA[dL]A[dV]V[dV]W[dV]W[dV]W[dV]W-NHCH2CH2OH)
IC50 ([1]; Cytotoxicity IC50): 0.038 µM
IC50 [1, 8]: 0.0359 µM
IC50 [1, 9]: 0.0376 ± 0.00156 µM
Supplementary Figure 1 dose-response value ([2]; concentration 0.000512 nM): 5.505 and 15.3461 and 13.2964
Supplementary Figure 1 dose-response value ([2]; concentration 0.00256 nM): 8.036 and 15.949 and 9.456
Supplementary Figure 1 dose-response value ([2]; concentration 0.0128 nM): 13.2228 and 16.5208 and 14.0976
Supplementary Figure 1 dose-response value ([2]; concentration 0.064 nM): 9.063 and 6.7749 and 3.531
Supplementary Figure 1 dose-response value ([2]; concentration 0.32 nM): 12.8598 and 15.0844 and 11.8922
Supplementary Figure 1 dose-response value ([2]; concentration 1.6 nM): 5.299 and 14.829 and 8.996
Supplementary Figure 1 dose-response value ([2]; concentration 8 nM): 22.9494 and 19.7369 and 18.966
Supplementary Figure 1 dose-response value ([2]; concentration 40 nM): 32.4215 and 16.7903 and 25.2195
Supplementary Figure 1 dose-response value ([2]; concentration 200 nM): 37.1629 and 34.3426 and 29.4644
Supplementary Figure 1 dose-response value ([2]; concentration 1000 nM): 37.6674 and 31.8257 and 42.0921
Supplementary Figure 1 dose-response value ([2]; concentration 5000 nM): 72.3831 and 71.3728 and 73.9246
antibacterial activity/MIC [3]: 0.13 mg/L
Antibacterial activity MIC [3]: 0.068 µM
antibacterial activity/MIC [4]: 1 mg/L
Antibacterial activity MIC [4]: 0.54 µM
Antibacterial activity MIC [5]: 0.0042 µM
antibacterial activity/MIC [5]: 0.0078 mg/L
Antibacterial activity MIC ([6]; 10403S): 4.3 µM
antibacterial activity/MIC [6]: 8 mg/L
Antibacterial activity MIC [7]: 17 µM
antibacterial activity/MIC [7]: 32 mg/L

CC(C)C[C@@H](NC(=O)[C@H](C)NC(=O)CNC(=O)[C@@H](NC=O)C(C)C)C(=O)N[C@@H](C)C(=O)N[C@@H](C(=O)N[C@H](C(=O)N[C@@H](C(=O)N[C@@H](Cc1c[nH]c2ccccc12)C(=O)N[C@H](CC(C)C)C(=O)N[C@@H](Cc1c[nH]c2ccccc12)C(=O)N[C@H](CC(C)C)C(=O)N[C@@H](Cc1c[nH]c2ccccc12)C(=O)N[C@@H](C(=O)N[C@@H](Cc1c[nH]c2ccccc12)C(=O)NCCO)C(C)C)[C@H](C)O)C(C)C)C(C)C [B12] (For-VGA[dL]A[dV]V[dT]W[dL]W[dL]W[dV]W-NHCH2CH2OH)
IC50 ([1]; Cytotoxicity IC50): 0.39 µM
IC50 [1, 8]: 0.34 µM
IC50 [1, 9]: 0.387 ± 0.0909 µM
Supplementary Figure 1 dose-response value ([2]; concentration 0.000512 nM): 14.3151 and 14.218 and 7.531
Supplementary Figure 1 dose-response value ([2]; concentration 0.00256 nM): 2.34 and -6.416 and 3.105
Supplementary Figure 1 dose-response value ([2]; concentration 0.0128 nM): 5.88 and 8.131 and 3.94
Supplementary Figure 1 dose-response value ([2]; concentration 0.064 nM): 3.705 and 7.973 and 3.229
Supplementary Figure 1 dose-response value ([2]; concentration 0.32 nM): 3.808 and 6.955 and 6.51
Supplementary Figure 1 dose-response value ([2]; concentration 1.6 nM): 8.996 and 0.3041 and 5.919
Supplementary Figure 1 dose-response value ([2]; concentration 8 nM): 7.9647 and 15.5867 and 17.3879
Supplementary Figure 1 dose-response value ([2]; concentration 40 nM): 5.306 and 8.903 and 13.6255
Supplementary Figure 1 dose-response value ([2]; concentration 200 nM): 28.0368 and 20.6509 and 3.758
Supplementary Figure 1 dose-response value ([2]; concentration 1000 nM): 25.4415 and 27.5334 and 28.0661
Supplementary Figure 1 dose-response value ([2]; concentration 5000 nM): 41.4626 and 58.8643 and 47.4572
antibacterial activity/MIC [3]: 0.13 mg/L
antibacterial activity/MIC [4]: 2 mg/L
Antibacterial activity MIC [4]: 1.1 µM
antibacterial activity/MIC [5]: 0.016 mg/L
antibacterial activity/MIC [6]: 4 mg/L
Antibacterial activity MIC [7]: 8.6 µM
antibacterial activity/MIC [7]: 16 mg/L

CC(C)C[C@@H](NC(=O)[C@H](C)NC(=O)CNC(=O)[C@@H](NC=O)C(C)C)C(=O)N[C@@H](C)C(=O)N[C@@H](C(=O)N[C@H](C(=O)N[C@@H](C(=O)N[C@@H](Cc1c[nH]c2ccccc12)C(=O)N[C@H](CC(C)C)C(=O)N[C@@H](Cc1c[nH]c2ccccc12)C(=O)N[C@H](CC(C)C)C(=O)N[C@@H](Cc1c[nH]c2ccccc12)C(=O)N[C@H](CC(C)C)C(=O)N[C@@H](Cc1c[nH]c2ccccc12)C(=O)NCCO)[C@H](C)O)C(C)C)C(C)C [B13] (For-VGA[dL]A[dV]V[dT]W[dL]W[dL]W[dL]W-NHCH2CH2OH)
IC50 [1, 8]: > 1 µM
Supplementary Figure 1 dose-response value ([2]; concentration 0.000512 nM): 12.6222 and 8.681 and 14.1878
Supplementary Figure 1 dose-response value ([2]; concentration 0.00256 nM): 5.0387 and -8.856 and 0.4118
Supplementary Figure 1 dose-response value ([2]; concentration 0.0128 nM): 17.1111 and 10.8226 and 6.743
Supplementary Figure 1 dose-response value ([2]; concentration 0.064 nM): 2.158 and 0.4656 and 8.156
Supplementary Figure 1 dose-response value ([2]; concentration 0.32 nM): 0.4983 and 9.035 and 4.354
Supplementary Figure 1 dose-response value ([2]; concentration 1.6 nM): 8.628 and -5.518 and 5.634
Supplementary Figure 1 dose-response value ([2]; concentration 8 nM): 16.7483 and 16.868 and 17.3839
Supplementary Figure 1 dose-response value ([2]; concentration 40 nM): 8.5256 and 14.4302 and 19.7817
Supplementary Figure 1 dose-response value ([2]; concentration 200 nM): 29.195 and 23.7339 and 11.0358
Supplementary Figure 1 dose-response value ([2]; concentration 1000 nM): 32.784 and 37.4398 and 33.6736
Supplementary Figure 1 dose-response value ([2]; concentration 5000 nM): 66.9777 and 54.6664 and 50.7322
antibacterial activity/MIC [3]: 1 mg/L
Antibacterial activity MIC [3]: 0.53 µM
antibacterial activity/MIC [4]: 4 mg/L
Antibacterial activity MIC [4]: 2.1 µM
Antibacterial activity MIC [5]: 0.033 µM
antibacterial activity/MIC [5]: 0.063 mg/L
antibacterial activity/MIC [6]: 2 mg/L
Antibacterial activity MIC [7]: 4.2 µM
antibacterial activity/MIC [7]: 8 mg/L
